According to patent publication EP3064205A1, “Therapeutic use of isomeric forms of 2-(4-chlorophenyl)quinolin-4-yl)(piperidin-2-yl)methanol” (Glionova AB, priority 2015, dated 2016):
“Also recorded” adds a separate entry of the source. Where two headings read alike, the source gives them in different places. Blank lines part the entries; values can stand above or below the compound they belong to.

Tests used:
[1] = Pharmacokinetic evaluation in mice (plasma and brain); type: in vivo, male NMRI mice; settings: for Kp / Tmax / Cmax: male, NMRI, mouse; for Kp: brain/plasma, single oral administration of 20 mg/kg
Description: Compounds S1 and S2 were formulated at 0.4 mg/mL in 7.5% NMP, 10% Kolliphor in 0.9% NaCl (for i.v. administration) and at 2.0 mg/mL in 0.1% Tween 80, 0.5% Na-CMC in water (for p.o. administration).
The pharmacokinetic properties of S1 and S2 were determined in male NMRI mice (Charles River, Germany) following single intravenous (i.v., tail vein, 2 mg/kg) or per oral (p.o, gavage, 20 mg/kg). Light isoflurane anaesthesia was used at i.v. administration, no anaesthesia was used at p.o. administration. Blood samples were kept on ice after sampling and centrigued at +4 °C, 1800 x g for 5 minutes to prepare plasma. Blood and homogenized brain samples were taken from animals at the following nominal time points: 15, 30, and 60 minutes, and 2, 4, 6, 8, 24, 48, 72 and 144 hours after dosing (n=3 samples/time-point). Blood sampling (400-600 microliters) was performed by orbital plexus collection under isoflurane anaesthesia into EDTA plasma tubes (BD Microtainer K2EDTA). Bioanalytical quantification of S1 and S2 was analysed in plasma and brain samples by a UPLC-MS/MS. Pharmacokinetics were calculated by non-compartmental analysis (NCA) from composite (mean) profiles using Phoenix WinNonlin Professional (v 6.3). Nominal sampling times and dose levels have been used for the NCA calculations. All animals dosed with S1 and S2 were systemically exposed to the test compound. The plasma and brain concentrations were detectable and analysed until 144 h.
Brain sampling was performed after the end of blood sampling at the specified time points following euthanization and skull extraction. Brains were weighed and placed in test tubes and placed on wet ice. 4 mL PBS (pH 7.4) per 1 g of brain tissue was added to the test tube and brains were then homogenized using an Ultra-Turrax T25 homogenisator (Setting 2, 9500 rpm, 10s). The homogenates were frozen at -20° C immediately after homogenization.

[2] = test system: glioblastoma cell line U3013; assay: ATP viability assay (CellTiter-Glo); type: cell-based, human; settings: U3013, dose response, CellTiterGlo ATP quantification
Description: (§1) The human melanoma cell line SK-MEL-28 is a well established reference cell line in melanoma research (Goodfellow M, et al. J. Natl. Cancer Inst. 59: 221-226, 1977). Cells were cultured in MEM supplemented with 10% FCS. Glioblastoma cell line (U3013) was generated directly from patient-derived tumors (Kitambi et al. Cell. 2014: 157(2):313-28) and grown in serum-free media supplemented with N2, B27, EGF, and FGF-2 (20 ng/ml) using previously described methodology (Pollard et al., 2009).
Culture plates were pre-coated with laminin (Sigma) for 3 hr at 10 ug/ml prior to use and confluent cells were split 1:3 to 1:5 using TrypLE Express (Invitrogen).
(§2) Viability assay was conducted in 96 well microtiter plates seeded with 3000 cells. Cell viability was measured using CellTiter-Glo assay (Promega), according to the manufacturer's instructions. Luminescence was measured using Victor3 FA (Perkin Elmer) microtiter plate reader. Total luminescence was normalized relative to negative control and curve fitting performed using GraphPad Prism (v6.02) software. IC50 was determined using Cell Viability assay, and data was illustrated using GraphPad Prism (version 6.02)

SK-Mel-28 = assay: ATP viability assay (CellTiter-Glo); type: cell-based; settings: Homo sapiens
Description: as §1, §2

SK-Mel-28 cells [3] = assay: Vacuolization, bright field microscopy; type: cell-based, human; settings: SK-Mel-28, 5µM or 10µM, 18h
Description: as §1
(§3) Cells were plated on glass slides and were treated with compound at the indicated concentrations for 18h before imaging. Digital images were taken using a Veleta camera (Olympus Soft Imaging Solutions).

Panc-1 cells [4] = assay: Vacuolization, bright field microscopy; type: cell-based, human; settings: Panc-1, 5µM or 10µM, 18h
Source text: The following well-characterized human pancreatic ductal adenocarcinoma cell lines (ATCC) were used: HPAF II, BxPC-3, MIA-PaCa2 and Panc-1. These cell lines were generated from patient-derived tumors and are widely used model system to study pancreatic cancer (HPAF II: Kim YW, et al. Pancreas 4: 353-362, 1989; BxPC-3: Tan MH, et al. Cancer Invest. 4: 15-23, 1986; MIA-PaCa2: Yunis AA, et al. Int. J. Cancer 19: 128-135, 1977; Pacn-1: Lieber M, et al. Int. J. Cancer 15: 741-747, 1975).
as §3

KPC cells = assay: Vacuolization, bright field microscopy; type: cell-based, mouse; settings: 5µM (3.3 µM elsewhere in the source) or 10µM, 18h
Description: as §3

Panc-1 cells [5] = assay: Long term toxicity (viability assay up to 25 days); type: cell-based, human
Description: as §2
(§4) SK-Mel-28 and Panc-1 cells were plated on 96 well plates. Three hours post-seeding, cells were treated with 10 µM, 1 µM, 0.1 µM and 0.01 µM of S2 or vehicle (DMSO). Viability assay was conducted after 24 h, 72 h, 5 days, 10 days, 15 days, 20 days and 25 days, as described above. Media was changed every two days. […] Cell viability at each concentration was quantified relative to DMSO control at any time point (each time point had its own control), and was presented as fraction of control. Each treatment and the adequate control and was performed in 3, 4 and 6 repeats. Error bars indicate standard error (SE).
as §4, with “Vacquionol-1 SR (S2)” for “S2”

SK-Mel-28 cells [6] = assay: Long term toxicity (viability assay up to 25 days); type: cell-based, human
Description: as §2, §4
as §4, with “Vacquionol-1 SR (S2)” for “S2”

Brain AUC last ([1]; brain, i.v., 2 mg/kg): 9050 ng·h/mL
Brain Cmax ([1]; brain, i.v., 2 mg/kg): 777 ng/mL
Brain tlast ([1]; brain, i.v., 2 mg/kg): 72 h
Brain AUC last ([1]; brain, p.o., 20 mg/kg): 157000 ng·h/mL
Brain Cmax ([1]; brain, p.o., 20 mg/kg): 1490 ng/mL
Brain tlast ([1]; brain, p.o., 20 mg/kg): 144 h
Kp ([1]; po, 20 mg/kg, read-out: exposure ratio AUC(brain/plasma)): 0.9
Kp ([1]; po, 20 mg/kg, read-out: exposure ratio Cmax(brain/plasma)): 0.7
Tmax ([1]; iv, brain, i.v., 2 mg/kg, read-out: Brain tmax): 1 h
Cmax ([1]; iv, plasma, 2 mg/kg): 455 ng/mL
Tmax ([1]; iv, plasma, i.v., 2 mg/kg, read-out: Plasma tmax): 0.5 h
Tmax ([1]; po, brain, p.o., 20 mg/kg, read-out: Brain tmax): 6 h
Cmax ([1]; po, plasma, 20 mg/kg): 2050 ng/mL
Tmax ([1]; po, plasma, p.o., 20 mg/kg, read-out: Plasma tmax): 8 h
Plasma AUC last ([1]; plasma, i.v., 2 mg/kg): 14100 ng·h/mL
Plasma tlast ([1]; plasma, i.v., 2 mg/kg): 72 h
Plasma AUC last ([1]; plasma, p.o., 20 mg/kg): 183000 ng·h/mL
Plasma tlast ([1]; plasma, p.o., 20 mg/kg): 144 h
IC50 (SK-Mel-28; SK-MEL-28, 24 h): 3600 nM
IC50 (SK-Mel-28; SK-MEL-28, 48 h): 2400 nM
IC50 (SK-Mel-28; SK-MEL-28, 72 h): 2100 nM
Compound: O[C@@H](c1cc(-c2ccc(Cl)cc2)nc2ccccc12)[C@H]1CCCCN1 [S2, (S)-(2-(4-chlorophenyl)quinolin-4-yl)((R)-piperidin-2-yl)methanol]
in vitro cytotoxicity, comparison of isolated isomers [2]: S1 and S2 exhibit greater in vitro oncolytic potency than the corresponding S3 and S4 isomers; also recorded: S1 and S2 exhibit higher cytotoxicity on cancer cells than S3 and S4
vacuole formation (SK-Mel-28 cells [3]): stimulate vacuole formation
vacuole formation (SK-Mel-28 cells [3]; listed as Vacquinol-1 SR (S2)): stimulates vacuole formation
vacuole formation (Panc-1 cells [4]): stimulate vacuole formation
vacuole formation (Panc-1 cells [4]; listed as Vacquinol-1 SR (S2)): stimulates vacuole formation
vacuole formation (KPC cells): stimulate vacuole formation
vacuole formation (KPC cells; listed as Vacquinol-1 SR (S2)): stimulates vacuole formation
long term toxicity (Panc-1 cells [5]; Panc-1, 10, 1, 0.1, 0.01 µM, up to 25 days): dose-dependent cytotoxic effect
long term toxicity, lower concentrations (Panc-1 cells [5]; Panc-1, long term exposure, 1µM): complete death
long term toxicity (SK-Mel-28 cells [6]; SK-Mel-28, 10, 1, 0.1, 0.01 µM, up to 25 days): dose-dependent cytotoxic effect
long term toxicity, lower concentrations (SK-Mel-28 cells [6]; SK-Mel-28, long term exposure of lower concentrations): complete death of the cells

Compound: O[C@H](c1cc(-c2ccc(Cl)cc2)nc2ccccc12)[C@H]1CCCCN1 [S3, (R)-(2-(4-chlorophenyl)quinolin-4-yl)((R)-piperidin-2-yl)methanol]
in vitro cytotoxicity, comparison of isolated isomers [2]: S1 and S2 exhibit greater in vitro oncolytic potency than the corresponding S3 and S4 isomers; also recorded: S1 and S2 exhibit higher cytotoxicity on cancer cells than S3 and S4

Compound: O[C@@H](c1cc(-c2ccc(Cl)cc2)nc2ccccc12)[C@@H]1CCCCN1 [S4, (S)-(2-(4-chlorophenyl)quinolin-4-yl)((S)-piperidin-2-yl)methanol]
in vitro cytotoxicity, comparison of isolated isomers [2]: S1 and S2 exhibit greater in vitro oncolytic potency than the corresponding S3 and S4 isomers; also recorded: S1 and S2 exhibit higher cytotoxicity on cancer cells than S3 and S4
